{
  "source": "the NIST ThermoML archive (doi:10.1016/j.fluid.2015.10.044)",
  "details": "Pendant drop shape",
  "note": "± gives the expanded uncertainty stated by the source.",
  "data": [
    {"smiles": "CCCCn1cc[n+](C)c1.N#CN=C=[N-]", "note": "[1-butyl-3-methylimidazolium dicyanamide]", "values": [
      {"measurement": "surface tension liquid-gas", "setting": "298.4 K", "value": "50.6 ± 0.7", "unit": "mN/m"},
      {"measurement": "surface tension liquid-gas", "setting": "307.9 K", "value": "50.3 ± 0.7", "unit": "mN/m"},
      {"measurement": "surface tension liquid-gas", "setting": "318.1 K", "value": "49.7 ± 0.7", "unit": "mN/m"},
      {"measurement": "surface tension liquid-gas", "setting": "328.4 K", "value": "48.6 ± 0.7", "unit": "mN/m"},
      {"measurement": "surface tension liquid-gas", "setting": "339 K", "value": "48.1 ± 0.7", "unit": "mN/m"},
      {"measurement": "surface tension liquid-gas", "setting": "342.9 K", "value": "47.5 ± 0.7", "unit": "mN/m"}
    ]},
    {"smiles": "CCCCn1cc[n+](C)c1.N#C[S-]", "note": "[1-butyl-3-methylimidazolium thiocyanate]", "values": [
      {"measurement": "surface tension liquid-gas", "setting": "298.1 K", "value": "44.6 ± 0.7", "unit": "mN/m"},
      {"measurement": "surface tension liquid-gas", "setting": "308.2 K", "value": "43.5 ± 0.7", "unit": "mN/m"},
      {"measurement": "surface tension liquid-gas", "setting": "318.1 K", "value": "43 ± 0.6", "unit": "mN/m"},
      {"measurement": "surface tension liquid-gas", "setting": "328.3 K", "value": "42.4 ± 0.6", "unit": "mN/m"},
      {"measurement": "surface tension liquid-gas", "setting": "338.5 K", "value": "41.9 ± 0.6", "unit": "mN/m"},
      {"measurement": "surface tension liquid-gas", "setting": "342.9 K", "value": "41.6 ± 0.6", "unit": "mN/m"}
    ]},
    {"smiles": "CCn1cc[n+](C)c1.N#C[C-](C#N)C#N", "note": "[1-ethyl-3-methyl-1H-imidazolium tricyanomethanide]", "values": [
      {"measurement": "surface tension liquid-gas", "setting": "298.3 K", "value": "51.1 ± 0.7", "unit": "mN/m"},
      {"measurement": "surface tension liquid-gas", "setting": "308.1 K", "value": "50.7 ± 0.7", "unit": "mN/m"},
      {"measurement": "surface tension liquid-gas", "setting": "317.9 K", "value": "49.9 ± 0.7", "unit": "mN/m"},
      {"measurement": "surface tension liquid-gas", "setting": "328 K", "value": "49.1 ± 0.7", "unit": "mN/m"},
      {"measurement": "surface tension liquid-gas", "setting": "338.9 K", "value": "48.5 ± 0.7", "unit": "mN/m"},
      {"measurement": "surface tension liquid-gas", "setting": "343 K", "value": "47.9 ± 0.7", "unit": "mN/m"}
    ]},
    {"smiles": "CCn1cc[n+](C)c1.N#C[B-](C#N)(C#N)C#N", "note": "[1-ethyl-3-methylimidazolium tetracyanoborate]", "values": [
      {"measurement": "surface tension liquid-gas", "setting": "298.1 K", "value": "49.1 ± 0.7", "unit": "mN/m"},
      {"measurement": "surface tension liquid-gas", "setting": "307.8 K", "value": "48.3 ± 0.7", "unit": "mN/m"},
      {"measurement": "surface tension liquid-gas", "setting": "318 K", "value": "47.4 ± 0.7", "unit": "mN/m"},
      {"measurement": "surface tension liquid-gas", "setting": "328.7 K", "value": "46.6 ± 0.7", "unit": "mN/m"},
      {"measurement": "surface tension liquid-gas", "setting": "338.8 K", "value": "45.8 ± 0.7", "unit": "mN/m"},
      {"measurement": "surface tension liquid-gas", "setting": "343 K", "value": "45.4 ± 0.7", "unit": "mN/m"}
    ]},
    {"smiles": "CCCCCCn1cc[n+](C)c1.N#CN=C=[N-]", "note": "[1-hexyl-3-methylimidazolium dicyanamide]", "values": [
      {"measurement": "surface tension liquid-gas", "setting": "298 K", "value": "43 ± 0.6", "unit": "mN/m"},
      {"measurement": "surface tension liquid-gas", "setting": "307.9 K", "value": "42.2 ± 0.6", "unit": "mN/m"},
      {"measurement": "surface tension liquid-gas", "setting": "318.4 K", "value": "41.6 ± 0.6", "unit": "mN/m"},
      {"measurement": "surface tension liquid-gas", "setting": "328.2 K", "value": "41 ± 0.6", "unit": "mN/m"},
      {"measurement": "surface tension liquid-gas", "setting": "338.5 K", "value": "40.5 ± 0.6", "unit": "mN/m"},
      {"measurement": "surface tension liquid-gas", "setting": "342.7 K", "value": "40.2 ± 0.6", "unit": "mN/m"}
    ]},
    {"smiles": "CCCCCCn1cc[n+](C)c1.N#C[B-](C#N)(C#N)C#N", "note": "[1-hexyl-3-methylimidazolium tetracyanoborate]", "values": [
      {"measurement": "surface tension liquid-gas", "setting": "298.6 K", "value": "41.5 ± 0.6", "unit": "mN/m"},
      {"measurement": "surface tension liquid-gas", "setting": "308.4 K", "value": "40.8 ± 0.6", "unit": "mN/m"},
      {"measurement": "surface tension liquid-gas", "setting": "318 K", "value": "40 ± 0.6", "unit": "mN/m"},
      {"measurement": "surface tension liquid-gas", "setting": "328 K", "value": "39.2 ± 0.6", "unit": "mN/m"},
      {"measurement": "surface tension liquid-gas", "setting": "338.5 K", "value": "38.4 ± 0.6", "unit": "mN/m"},
      {"measurement": "surface tension liquid-gas", "setting": "342.9 K", "value": "38.2 ± 0.6", "unit": "mN/m"}
    ]}
  ]
}
